In PubChem BioAssay (NCI):
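Protocol summary: plate cells (96-well), add compound at 5 concentrations, incubate 48 h, interpolate endpoints linearly. The concentration for 50% growth inhibition is given as GI50. TGI denotes the concentration required for complete inhibition of growth.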

Legend:
Test in all cases: growth of human tumour cells (NCI), 48 h
NCI/ADR-RES ovarian = system: NCI/ADR-RES ovarian
MALME-3M melanoma = system: MALME-3M melanoma
SNB-19 CNS = system: SNB-19 CNS
HOP-92 NSCLC = system: HOP-92 NSCLC
K-562 leukemia = system: K-562 leukemia
HL-60(TB) leukemia = system: HL-60(TB) leukemia
UO-31 renal = system: UO-31 renal
UACC-257 melanoma = system: UACC-257 melanoma
OVCAR-3 ovarian = system: OVCAR-3 ovarian
BT-549 breast = system: BT-549 breast

SMILES | GI50 (NCI/ADR-RES ovarian) [µM] | TGI (NCI/ADR-RES ovarian) [µM] | GI50 (MALME-3M melanoma) [µM] | TGI (MALME-3M melanoma) [µM] | GI50 (SNB-19 CNS) [µM] | TGI (SNB-19 CNS) [µM] | GI50 (HOP-92 NSCLC) [µM] | TGI (HOP-92 NSCLC) [µM] | GI50 (K-562 leukemia) [µM] | TGI (K-562 leukemia) [µM] | GI50 (HL-60(TB) leukemia) [µM] | TGI (HL-60(TB) leukemia) [µM] | GI50 (UO-31 renal) [µM] | TGI (UO-31 renal) [µM] | GI50 (UACC-257 melanoma) [µM] | TGI (UACC-257 melanoma) [µM] | TGI (OVCAR-3 ovarian) [µM] | TGI (BT-549 breast) [µM] | GI50 (OVCAR-3 ovarian) [µM] | GI50 (BT-549 breast) [µM]
CC1(C)C2CCC13C(=O)C1OC3(C2)C2C(=O)c3cc4ccccc4cc3C(=O)C12 (stereo unspecified) | 2.71 | 15.9 | 7.3 | 43.8 | 5.57 | 46.4 | 4.19 | 27.5 | 4.92 | 33.7 | 4.89 | 26.7 | 19.6 | > 100 | 20.8 | 64.8 | – | – | – | –
O=C1CC(O)CC(=O)C1=C(O)CCCCCCCCCCc1ccccc1 (stereo unspecified) | – | – | – | – | – | > 100 | – | > 100 | – | > 100 | – | 59.2 | – | > 100 | – | > 100 | > 100 | – | – | –
O=C(O)CCN(CCCCN(CCC(=O)O)CCC(=O)O)CCC(=O)O | – | – | – | > 100 | – | – | – | > 100 | – | > 100 | – | > 100 | – | – | – | – | > 100 | – | – | –
CCc1ccccc1NC(=O)C1=C(C)NC(C)=C(C(=O)Nc2ccccc2CC)C1c1ccccc1Cl | – | – | – | > 100 | – | > 100 | – | > 100 | – | > 100 | – | > 100 | – | > 100 | – | > 100 | > 100 | – | – | –
N#CC1(C#N)C2(c3ccccc3)OC(c3ccccc3)(c3cc4ccccc4cc32)C1(C#N)C#N | – | 43.8 | – | 37.9 | – | 32.2 | – | 7.05 | – | 8.18 | – | 7.05 | – | 26.5 | – | > 54.2 | 28.5 | – | – | –
O=C(NCCCCNc1cccccc1=O)OCc1ccccc1 | – | – | – | > 100 | – | > 100 | – | – | – | > 100 | – | > 100 | – | > 100 | – | > 100 | > 100 | – | – | –
COc1cc(Br)c(C=Nc2cccc3cc(OC)c(OC)cc23)cc1OC | – | – | – | > 100 | – | > 100 | – | 98.1 | – | > 100 | – | 39.5 | – | > 100 | – | > 100 | 80.8 | – | – | –
CS(=O)(=O)OC1CCC2(C#N)CCC1C2=O (stereo unspecified) | – | – | – | > 100 | – | > 100 | – | – | – | > 100 | – | > 100 | – | > 100 | – | > 100 | > 100 | – | – | –
C=C1C(=O)O[C@@H]2C[C@@H](C)[C@@H]3C=CC(=O)[C@@]3(C)[C@@H](O)[C@H]12 | – | – | – | 3.87 | – | 7.02 | – | – | – | 8.34 | – | 2.4 | – | 3.65 | – | 3.09 | 3.72 | 2.32 | – | –
N.N.N.N.[Co+3].[N-]=[N+]=[N-].[N-]=[N+]=[N-].[N-]=[N+]=[N-] | – | – | 78.1 | > 100 | > 100 | > 100 | 19 | > 100 | > 100 | > 100 | 61.5 | > 100 | 29.2 | > 100 | > 100 | > 100 | > 100 | – | > 100 | –
NC(=O)C(=O)N/N=C1\C(=O)N(c2ccc(Cl)cc2Cl)C(=O)C1C(=O)Nc1ccc(Cl)cc1Cl (stereo unspecified) | – | – | – | > 100 | – | > 100 | – | > 100 | – | > 100 | – | > 100 | – | > 100 | – | > 100 | > 100 | – | – | –
CC1=C(c2ccccc2)C(c2ccccc2)=C(c2ccccc2)C2(c3ccccc3)C(=O)C(C)CN12 (stereo unspecified) | – | – | – | > 100 | – | > 100 | – | – | – | – | – | – | – | > 100 | – | > 100 | > 100 | – | – | –
CCN(CC)c1c(C(=O)/C=C/c2ccc(Cl)cc2)c(-c2ccccc2)nn(C)c1=O | – | – | – | 4.35 | – | 3.98 | – | 4.33 | – | 7.27 | – | 6.46 | – | 3.12 | – | 3.76 | 4.35 | – | – | –
CN1CCC2(CC1)ONC1=NCCN12 | 19.6 | 70.3 | 20.1 | 73.7 | > 100 | > 100 | – | – | 37.7 | > 100 | – | – | 45.3 | > 100 | > 100 | > 100 | – | > 100 | – | 53.1
CCCCCCCCCCCc1nnc(N)o1 | – | – | – | > 100 | – | 50.7 | – | > 100 | – | > 100 | – | > 100 | – | 38.3 | – | > 100 | > 100 | – | – | –
CC(C)=CC1C[C@H](C2CC=C3C2(C)CCC2[C@@]3(C)C(=O)CC3[C@]2(C)C=CC(=O)[C@]3(C)CO)CO1 (stereo partly specified) | – | – | – | 16.8 | – | 42.9 | – | 41.3 | – | 31.3 | – | 9.42 | – | 33.1 | – | 30.8 | 13.2 | – | – | –
O=C(O)CCCSC(=O)Nc1ccc(N=Nc2ccccc2)cc1 | – | – | – | – | – | > 100 | – | – | – | > 100 | – | – | – | > 100 | – | > 100 | > 100 | – | – | –
COc1ccc(C23C(=O)c4ccccc4N2O[C@H]2C(=O)N(c4ccccc4)C(=O)[C@H]23)cc1 (stereo partly specified) | – | – | – | > 100 | – | > 100 | – | > 100 | – | > 100 | – | > 100 | – | > 100 | – | > 100 | > 100 | – | – | –
C=CCNC(=O)N(CCCCC(NC(C)=O)C(=O)NCc1ccccc1)Cc1ccccc1 (stereo unspecified) | – | – | – | > 100 | – | > 100 | – | > 100 | – | > 100 | – | > 100 | – | > 100 | – | > 100 | > 100 | – | – | –
CC(C)Cn1cnc2c(SCc3ccc(Cl)cc3Cl)nc(N)nc21 | – | > 100 | – | 71.6 | – | > 100 | – | 69.9 | – | > 100 | – | – | – | > 100 | – | 74.6 | > 100 | > 100 | – | –
COC(=O)CC1C[C@H](C#N)N(C(=O)c2ccccc2)C[C@@H]1CC[N+](=O)[O-] (stereo partly specified) | – | – | – | > 100 | – | > 100 | – | > 100 | – | > 100 | – | > 100 | – | > 100 | – | > 100 | > 100 | – | – | –
C=C1C(=O)O[C@H]2[C@H]1CC/C(COC(=O)CSCSCC(=O)OC/C1=C/CC[C@@]3(C)O[C@H]3[C@H]3OC(=O)C(=C)[C@@H]3CC1)=C\CC[C@@]1(C)O[C@@H]21 | 3.25 | 12.3 | 1.58 | 3.29 | 2.44 | 5.99 | 1.39 | 2.85 | 0.554 | > 100 | – | – | 1.27 | 2.56 | 1.89 | 4.67 | 2.54 | 2.91 | 1.2 | 1.47
O=C(O)C1=C(O)C(C(=O)O)C23CCCCCCCCCCC12C(C(=O)O)C(O)=C3C(=O)O (stereo unspecified) | – | – | – | > 100 | – | > 100 | – | > 100 | – | > 100 | – | > 100 | – | > 100 | – | > 100 | > 100 | – | – | –
